Laboratory results reported in ChEMBL document CHEMBL1143427, “Interactions of ceftobiprole with beta-lactamases from molecular classes A to D” (Antimicrob Agents Chemother, 2007).

Assays:
Klebsiella pneumoniae [1] = assay: Activity of Klebsiella pneumoniae TEM26 assessed as drug hydrolysis by spectrophotometry relative to cephaloridine; parameters: scale not given: the % may be the effect or the level left
[2] = target: T1, Beta-lactamase (Klebsiella oxytoca) (UniProt Q8RT60); assay: Activity of Klebsiella oxytoca beta-lactamase K1 assessed as drug hydrolysis by spectrophotometry relative to cephaloridine; parameters: scale not given: the % may be the effect or the level left
T1 sequence (whole entry): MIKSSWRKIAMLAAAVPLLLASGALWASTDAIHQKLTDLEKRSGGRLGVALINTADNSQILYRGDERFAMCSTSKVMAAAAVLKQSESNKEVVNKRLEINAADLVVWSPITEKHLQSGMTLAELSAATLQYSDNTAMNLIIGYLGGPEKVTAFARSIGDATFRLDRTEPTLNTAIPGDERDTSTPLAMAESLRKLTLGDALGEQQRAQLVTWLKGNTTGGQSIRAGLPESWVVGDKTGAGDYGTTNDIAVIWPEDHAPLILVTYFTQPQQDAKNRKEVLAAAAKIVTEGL

[3] = target: T1, Beta-lactamase (Klebsiella oxytoca); assay: Ratio of Kcat to Km of Klebsiella oxytoca beta-lactamase K1 assessed as drug hydrolysis by spectrophotometry relative to cephaloridine; parameters: scale not given: the % may be the effect or the level left
Klebsiella pneumoniae [4] = assay: Ratio of Kcat to Km of Klebsiella pneumoniae TEM26 assessed as drug hydrolysis by spectrophotometry relative to cephaloridine; parameters: scale not given: the % may be the effect or the level left
Klebsiella pneumoniae [5] = assay: Ratio of Kcat to Km of Klebsiella pneumoniae TEM26 assessed as drug hydrolysis by spectrophotometry
[6] = target: Beta-lactamase CTX-M (Escherichia coli) (UniProt Q9EXV5); assay: Activity of Escherichia coli CTX-M-15 assessed as drug hydrolysis by spectrophotometry relative to cephaloridine; parameters: scale not given: the % may be the effect or the level left
[7] = target: Beta-lactamase CTX-M (Escherichia coli) (UniProt Q9EXV5); assay: Ratio of Kcat to Km of Escherichia coli CTX-M-15 assessed as drug hydrolysis by spectrophotometry relative to cephaloridine; parameters: scale not given: the % may be the effect or the level left
Klebsiella pneumoniae [8] = assay: Activity of Klebsiella pneumoniae TEM26 assessed as drug hydrolysis by spectrophotometry
[9] = target: Beta-lactamase (Morganella morganii) (UniProt P94958); assay: Activity of Morganella morganii AmpC assessed as drug hydrolysis by spectrophotometry relative to cephaloridine; parameters: scale not given: the % may be the effect or the level left
[10] = target: Beta-lactamase (Serratia marcescens) (UniProt P18539); assay: Activity of Serratia marcescens AmpC assessed as drug hydrolysis by spectrophotometry relative to cephaloridine; parameters: scale not given: the % may be the effect or the level left
[11] = target: Beta-lactamase (Pseudomonas aeruginosa (strain ATCC 15692 / PAO1 / 1C / PRS 101 / LMG12228)) (UniProt P24735); assay: Activity of Pseudomonas aeruginosa 4352 AmpC assessed as drug hydrolysis by spectrophotometry relative to cephaloridine; parameters: scale not given: the % may be the effect or the level left
[12] = target: Beta-lactamase (Morganella morganii) (UniProt P94958); assay: Ratio of Kcat to Km of Morganella morganii AmpC assessed as drug hydrolysis by spectrophotometry relative to cephaloridine; parameters: scale not given: the % may be the effect or the level left
[13] = target: Beta-lactamase (Pseudomonas aeruginosa (strain ATCC 15692 / PAO1 / 1C / PRS 101 / LMG12228)) (UniProt P24735); assay: Ratio of Kcat to Km of Pseudomonas aeruginosa 4352 AmpC assessed as drug hydrolysis by spectrophotometry relative to cephaloridine; parameters: scale not given: the % may be the effect or the level left
[14] = target: Beta-lactamase (Serratia marcescens) (UniProt P18539); assay: Ratio of Kcat to Km of Serratia marcescens AmpC assessed as drug hydrolysis by spectrophotometry relative to cephaloridine; parameters: scale not given: the % may be the effect or the level left

Sequence of Beta-lactamase (Pseudomonas aeruginosa (strain ATCC 15692 / PAO1 / 1C / PRS 101 / LMG12228)) (P24735 27-397 limits assumed): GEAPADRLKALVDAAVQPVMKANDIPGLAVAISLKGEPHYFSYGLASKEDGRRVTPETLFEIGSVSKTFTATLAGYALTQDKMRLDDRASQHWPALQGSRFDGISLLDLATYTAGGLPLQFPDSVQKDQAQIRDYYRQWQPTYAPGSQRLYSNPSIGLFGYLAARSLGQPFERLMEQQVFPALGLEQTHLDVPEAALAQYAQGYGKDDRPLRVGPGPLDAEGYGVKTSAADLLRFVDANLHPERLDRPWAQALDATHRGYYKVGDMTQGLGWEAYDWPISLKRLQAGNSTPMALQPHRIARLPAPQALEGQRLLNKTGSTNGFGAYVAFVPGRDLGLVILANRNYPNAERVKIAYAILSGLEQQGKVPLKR
Sequence of Beta-lactamase (Serratia marcescens) (P18539 whole entry): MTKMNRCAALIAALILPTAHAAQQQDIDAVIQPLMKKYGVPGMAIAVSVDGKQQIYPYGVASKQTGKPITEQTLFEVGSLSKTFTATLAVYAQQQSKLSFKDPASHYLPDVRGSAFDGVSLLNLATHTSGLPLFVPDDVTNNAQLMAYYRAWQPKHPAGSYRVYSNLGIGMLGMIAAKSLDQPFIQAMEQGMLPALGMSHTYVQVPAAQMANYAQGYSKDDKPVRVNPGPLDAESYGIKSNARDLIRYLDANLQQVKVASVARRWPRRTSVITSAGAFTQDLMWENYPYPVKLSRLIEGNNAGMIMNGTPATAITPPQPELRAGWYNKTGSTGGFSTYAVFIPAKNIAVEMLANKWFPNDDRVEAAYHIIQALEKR

Row | Activity (Klebsiella pneumoniae [1]) [%] | Activity [2] [%] | Activity [3] [%] | Activity (Klebsiella pneumoniae [4]) [%] | kcat/Km (Klebsiella pneumoniae [5]) [M⁻¹ s⁻¹] | Activity [6] [%] | Activity [7] [%] | Km (Klebsiella pneumoniae [8]) [µM] | kcat (Klebsiella pneumoniae [8]) [s⁻¹] | Activity [9] [%] | Activity [10] [%] | Activity [11] [%] | Activity [12] [%] | Activity [13] [%] | Activity [14] [%] | SMILES
1 | 7.8 | 13 | 2.3 | 34 | 190000 | 95 | 140 | 15 | 2.9 |  |  |  |  |  |  | CO/N=C(\C(=O)N[C@@H]1C(=O)N2C(C(=O)O)=C(COC(C)=O)CS[C@H]12)c1csc(N)n1
2 |  |  |  |  |  |  |  |  |  | 160 | 42 | 68 | 1400 | 1800 | 19 | O=C(Cc1cccs1)N[C@@H]1C(=O)N2C(C(=O)O)=C(/C=C/c3ccc([N+](=O)[O-])cc3[N+](=O)[O-])CS[C@H]12
3 |  |  |  |  | 560000 |  |  | 66 | 37 |  |  |  |  |  |  | O=C(Cc1cccs1)N[C@@H]1C(=O)N2C(C(=O)[O-])=C(C[n+]3ccccc3)CS[C@H]12
